Source: PMC10413907 (Journal of Evidence-based Integrative Medicine, 2023)
pIC50: −log10 of the molar value. Where “and” joins values, the source holds several entries; their conditions need not be identical. Identical values can stand only once. Like-named read-outs stand apart in the source and are kept apart here.

How the values were obtained:
IL-23A mRNA = experiment: Pro-inflammatory cytokine mRNA expression; format: cell-based, human; settings: PBMCs from psoriasis patients vs healthy subjects, 48 h
recombinant human CYP2C9 = recombinant human CYP2C9 (Homo sapiens, UniProt P11712); experiment: P450-Glo bioluminescent CYP450 inhibition assay
Sequence of recombinant human CYP2C9 (P11712 whole entry): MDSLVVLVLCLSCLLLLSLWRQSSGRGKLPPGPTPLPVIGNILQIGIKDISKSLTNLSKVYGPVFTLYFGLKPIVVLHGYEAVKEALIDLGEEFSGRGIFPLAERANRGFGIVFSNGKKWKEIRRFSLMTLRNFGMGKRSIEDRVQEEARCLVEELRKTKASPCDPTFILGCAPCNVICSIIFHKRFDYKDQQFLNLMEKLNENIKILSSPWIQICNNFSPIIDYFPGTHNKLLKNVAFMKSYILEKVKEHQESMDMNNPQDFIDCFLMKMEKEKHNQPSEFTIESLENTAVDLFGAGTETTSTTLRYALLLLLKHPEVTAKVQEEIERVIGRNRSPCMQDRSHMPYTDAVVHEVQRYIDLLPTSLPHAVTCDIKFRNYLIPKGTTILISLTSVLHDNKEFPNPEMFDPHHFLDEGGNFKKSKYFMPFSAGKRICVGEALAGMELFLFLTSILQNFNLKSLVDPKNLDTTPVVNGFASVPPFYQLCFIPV

recombinant human CYP3A4 = recombinant human CYP3A4 (Homo sapiens, UniProt P08684); experiment: P450-Glo bioluminescent CYP450 inhibition assay; format: in vitro ADME
Sequence of recombinant human CYP3A4 (P08684 whole entry): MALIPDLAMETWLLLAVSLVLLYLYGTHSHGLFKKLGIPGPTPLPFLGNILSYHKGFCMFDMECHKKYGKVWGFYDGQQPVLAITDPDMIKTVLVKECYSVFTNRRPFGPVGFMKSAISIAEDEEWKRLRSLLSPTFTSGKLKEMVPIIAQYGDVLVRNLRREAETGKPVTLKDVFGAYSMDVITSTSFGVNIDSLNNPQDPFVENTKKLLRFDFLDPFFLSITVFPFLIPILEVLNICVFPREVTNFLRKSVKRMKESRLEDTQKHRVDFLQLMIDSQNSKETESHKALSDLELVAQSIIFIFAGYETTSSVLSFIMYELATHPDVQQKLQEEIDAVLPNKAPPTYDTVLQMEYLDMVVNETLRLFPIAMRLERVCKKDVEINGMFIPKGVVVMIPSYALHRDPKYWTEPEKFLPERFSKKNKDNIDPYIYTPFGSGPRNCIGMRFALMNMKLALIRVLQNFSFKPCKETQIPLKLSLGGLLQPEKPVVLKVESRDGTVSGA

[1] = target: recombinant human CYP2C19 (Homo sapiens, UniProt P33261); experiment: P450-Glo bioluminescent CYP450 inhibition assay; format: in vitro ADME
Sequence of recombinant human CYP2C19 (P33261 whole entry): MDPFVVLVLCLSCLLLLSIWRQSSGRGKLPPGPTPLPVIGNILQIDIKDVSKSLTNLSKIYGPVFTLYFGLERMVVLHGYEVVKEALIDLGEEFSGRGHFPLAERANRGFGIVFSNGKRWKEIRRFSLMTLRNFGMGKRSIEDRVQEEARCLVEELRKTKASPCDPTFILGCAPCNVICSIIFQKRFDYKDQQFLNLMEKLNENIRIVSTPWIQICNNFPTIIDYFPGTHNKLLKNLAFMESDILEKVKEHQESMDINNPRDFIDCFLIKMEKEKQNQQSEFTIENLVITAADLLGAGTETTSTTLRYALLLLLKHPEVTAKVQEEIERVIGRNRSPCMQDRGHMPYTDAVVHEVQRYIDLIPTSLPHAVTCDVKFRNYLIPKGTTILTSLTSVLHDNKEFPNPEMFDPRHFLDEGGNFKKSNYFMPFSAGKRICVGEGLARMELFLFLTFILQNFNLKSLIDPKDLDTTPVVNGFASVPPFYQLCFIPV

IL-6 mRNA = experiment: Pro-inflammatory cytokine mRNA expression; format: cell-based, human; settings: PBMCs from psoriasis patients vs healthy subjects; 48 h; IC50
recombinant human CYP1A2 = target: T1, recombinant human CYP1A2 (Homo sapiens, UniProt P05177); experiment: P450-Glo bioluminescent CYP450 inhibition assay; format: in vitro ADME
T1 sequence (P05177 1-516): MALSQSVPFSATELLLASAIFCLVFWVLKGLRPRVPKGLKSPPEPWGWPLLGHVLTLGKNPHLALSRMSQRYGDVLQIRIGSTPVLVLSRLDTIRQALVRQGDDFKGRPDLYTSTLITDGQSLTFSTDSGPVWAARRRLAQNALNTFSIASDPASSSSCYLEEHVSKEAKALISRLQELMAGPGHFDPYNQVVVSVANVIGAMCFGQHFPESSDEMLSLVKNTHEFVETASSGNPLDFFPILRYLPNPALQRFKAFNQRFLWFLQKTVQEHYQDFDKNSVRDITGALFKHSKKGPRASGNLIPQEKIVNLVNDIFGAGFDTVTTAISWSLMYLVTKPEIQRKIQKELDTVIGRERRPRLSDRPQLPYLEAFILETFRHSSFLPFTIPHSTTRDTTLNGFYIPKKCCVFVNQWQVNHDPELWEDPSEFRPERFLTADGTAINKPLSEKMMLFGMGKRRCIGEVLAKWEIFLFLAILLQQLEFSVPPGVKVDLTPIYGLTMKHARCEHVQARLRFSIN

recombinant human CYP2D6 = recombinant human CYP2D6 (Homo sapiens, UniProt P10635); experiment: P450-Glo bioluminescent CYP450 inhibition assay
Sequence of recombinant human CYP2D6 (P10635 whole entry): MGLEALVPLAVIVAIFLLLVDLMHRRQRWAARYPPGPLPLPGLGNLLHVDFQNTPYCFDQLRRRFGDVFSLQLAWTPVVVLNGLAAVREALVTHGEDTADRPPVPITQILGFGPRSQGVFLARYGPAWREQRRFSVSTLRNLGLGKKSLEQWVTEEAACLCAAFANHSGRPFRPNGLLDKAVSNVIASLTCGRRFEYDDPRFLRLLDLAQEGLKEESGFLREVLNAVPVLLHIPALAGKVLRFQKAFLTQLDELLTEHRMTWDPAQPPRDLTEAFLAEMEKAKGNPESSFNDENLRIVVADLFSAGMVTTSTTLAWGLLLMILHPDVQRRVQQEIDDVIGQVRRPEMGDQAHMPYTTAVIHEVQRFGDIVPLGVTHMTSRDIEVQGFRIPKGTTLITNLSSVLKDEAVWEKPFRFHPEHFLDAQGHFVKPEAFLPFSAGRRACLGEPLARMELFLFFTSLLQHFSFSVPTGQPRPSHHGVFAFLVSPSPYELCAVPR

[2] = test system: PBMCs (from healthy subjects); experiment: MTT cell proliferation assay, PBMCs; format: cell-based, human
[3] = test system: PBMCs from psoriasis patients and healthy subjects; experiment: Cell apoptosis/necrosis, FITC-Annexin V/PI flow cytometry, PBMCs; format: cell-based, human; settings: 48 h exposure; for proportions of PBMCs with early apoptosis, psoriasis patients compared with healthy volunteers: both concentrations
IL-12p19 mRNA = experiment: Pro-inflammatory cytokine mRNA expression; format: cell-based, human; settings: PBMCs from psoriasis patients vs healthy subjects
HaCaT cells = experiment: MTT cell proliferation assay, HaCaT; format: cell-based, human; settings: 48 h, median (range)
TNF-α mRNA = experiment: Pro-inflammatory cytokine mRNA expression; format: cell-based, human; settings: PBMCs from psoriasis patients vs healthy subjects; 48 h; IC25
[4] = test system: PBMCs from psoriasis patients and healthy subjects; experiment: Cell cycle analysis by flow cytometry; format: cell-based, human; settings: PBMCs from patients with psoriasis; 24 h; both concentrations
[5] = read-out: CYP2C9 IC50, median (range), unit of the reference inhibitor
[6] = read-out: CYP2C9 inhibitory potency class, class by IC50
[7] = read-out: CYP3A4 IC50, median (range), unit of the reference inhibitor
[8] = read-out: CYP3A4 inhibitory potency class, class by IC50
[9] = read-out: CYP2C19 IC50, median (range), unit of the reference inhibitor
[10] = read-out: CYP2C19 inhibitory potency class, class by IC50
[11] = read-out: CYP1A2 IC50, median (range), unit of the reference inhibitor
[12] = read-out: CYP1A2 inhibitory potency class, class by IC50
[13] = read-out: CYP2D6 IC50, median (range), unit of the reference inhibitor
[14] = read-out: CYP2D6 inhibitory potency class, class by IC50

CCOC(=O)C=Cc1ccc(OC)cc1 [EPMC, ethyl-p-methoxycinnamate]
IL-23A mRNA expression (IL-23A mRNA; IC50): reduced | pIC50 (recombinant human CYP2C9; [5]): 4.06 | pIC50 (recombinant human CYP2C9; [6]): < 4.30 | pIC50 (recombinant human CYP3A4; [7]): 3.06 | pIC50 (recombinant human CYP3A4; [8]): < 4.30 | pIC50 [1, 9]: 4.10 | pIC50 [1, 10]: < 4.30 | IL-6 mRNA expression (IL-6 mRNA): reduced | pIC50 (recombinant human CYP1A2; [11]): 3.93 | pIC50 (recombinant human CYP1A2; [12]): < 4.30 | CYP2D6 inhibitory potency class (recombinant human CYP2D6; class by IC50): moderately inhibited | pIC50 (recombinant human CYP2D6; [13]): 4.75 | pIC50 (recombinant human CYP2D6; [14]): 4.30 to 5.00 | PBMCs IC25 ([2]; 48 h, median (range)): 254 (234-258) μM | PBMCs IC50 ([2]; 48 h, median (range)): 63.09 µg/mL | pIC50 ([2]; read-out: PBMCs IC50, 48 h, median (range)): 3.51 and 3.52 | proportions of PBMCs with early apoptosis, psoriasis patients compared with healthy volunteers [3]: significantly lower | IL-12p19 mRNA expression (IL-12p19 mRNA; 24 h, only at IC50): downregulating | HaCaT IC25 (HaCaT cells; MTT): 432 (395-458) μM | HaCaT IC50 (HaCaT cells; MTT): 114.25 µg/mL | pIC50 (HaCaT cells; read-out: HaCaT IC50, MTT): 3.26

COc1cc(/C=C/C(=O)O)ccc1O [Ferulic acid, ferulic acid]
pIC50 (recombinant human CYP2C9; [5]): 3.33 | pIC50 (recombinant human CYP2C9; [6]): < 4.30 | pIC50 (recombinant human CYP3A4; [7]): 2.94 | pIC50 (recombinant human CYP3A4; [8]): < 4.30 | pIC50 [1, 9]: 2.84 | pIC50 [1, 10]: < 4.30 | pIC50 (recombinant human CYP1A2; [11]): 2.28 | pIC50 (recombinant human CYP1A2; [12]): < 4.30 | CYP2D6 inhibitory potency class (recombinant human CYP2D6; class by IC50): moderately inhibited | pIC50 (recombinant human CYP2D6; [13]): 4.94 | pIC50 (recombinant human CYP2D6; [14]): 4.30 to 5.00

CCC/C=C1\OC(=O)C2=C1CCC=C2 [Ligustilide, ligustilide]
IL-23A mRNA expression (IL-23A mRNA; IC25): downregulated | TNF-α mRNA expression (TNF-α mRNA): downregulated | pIC50 (recombinant human CYP2C9; CYP2C9 IC50, median (range), unit of the reference inhibitor): 3.94 | pIC50 (recombinant human CYP2C9; CYP2C9 inhibitory potency class, class by IC50): < 4.30 | pIC50 (recombinant human CYP3A4; CYP3A4 IC50, median (range), unit of the reference inhibitor): 4.40 | pIC50 (recombinant human CYP3A4; CYP3A4 inhibitory potency class, class by IC50): 4.30 to 5.00 | CYP3A4 inhibitory potency class (recombinant human CYP3A4; class by IC50): moderately inhibited | phase of cell cycle arrest [4]: S phase | pIC50 ([1]; CYP2C19 IC50, median (range), unit of the reference inhibitor): 4.05 | pIC50 ([1]; CYP2C19 inhibitory potency class, class by IC50): < 4.30 | IL-6 mRNA expression (IL-6 mRNA): downregulating | pIC50 (recombinant human CYP1A2): 4.30 to 5.00 | CYP1A2 inhibitory potency class (recombinant human CYP1A2; class by IC50): moderately inhibited | pIC50 (recombinant human CYP2D6; CYP2D6 IC50, median (range), unit of the reference inhibitor): 3.66 | pIC50 (recombinant human CYP2D6; CYP2D6 inhibitory potency class, class by IC50): < 4.30 | PBMCs IC25 ([2]; 48 h, median (range)): 105 (101-106) μM | proportions of living PBMCs from psoriasis patients compared with PBMCs from healthy volunteers [3]: significantly higher | proportions of PBMCs with early apoptosis, psoriasis patients compared with healthy volunteers [3]: significantly lower | IL-12p19 mRNA expression (IL-12p19 mRNA; 48 h, IC25): downregulated | IC50 (HaCaT cells; Homo sapiens, HaCaT, read-out: HaCaT IC50, MTT, 48 h): 188 µM and 35.8 µg/mL | HaCaT IC25 (HaCaT cells; MTT): 151 (138-155) μM
